We go through one molecule from patent US20030039697A1, “Matrices containing nitric oxide donors and reducing agents and their use” (priority 2002, published 2003).

Each structure is given as a SMILES string.

In this assay the test system is E. coli. Format: cell-based.

Regarding `N[C@@H](CCC(=O)N[C@@H](CSN=O)C(=O)NCC(=O)O)C(=O)O` [GSNO, S-nitroso-L-glutathione], the “growth of bacteria (E. coli) with coated catheter segments” value was “inhibits growth of bacteria”.
